Results reported in patent publication US10065990B2, “Cyclic peptide compound, and preparation method, pharmaceutical composition and use thereof” (HANGZHOU GUANYU BIO-MEDICAL CO., LTD, priority 2013, dated 2018).
Like-named read-outs stand apart in the source and are kept apart here.

Experiments:
HDAC7 = target: T1, HDAC7 (Homo sapiens, UniProt Q8WUI4); assay: HDAC biochemical activity measurement (fluorescent substrate deacetylation);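 also: fluorogenic deacetylation assay using acetyl-lysine substrate at 20 µM, enzyme and compound incubated 30 min at 37 °C, then developer added, fluorescence read at 360/460 nm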; details: HDAC7; 37° C. 30 minutes
T1 sequence (Q8WUI4 1-952): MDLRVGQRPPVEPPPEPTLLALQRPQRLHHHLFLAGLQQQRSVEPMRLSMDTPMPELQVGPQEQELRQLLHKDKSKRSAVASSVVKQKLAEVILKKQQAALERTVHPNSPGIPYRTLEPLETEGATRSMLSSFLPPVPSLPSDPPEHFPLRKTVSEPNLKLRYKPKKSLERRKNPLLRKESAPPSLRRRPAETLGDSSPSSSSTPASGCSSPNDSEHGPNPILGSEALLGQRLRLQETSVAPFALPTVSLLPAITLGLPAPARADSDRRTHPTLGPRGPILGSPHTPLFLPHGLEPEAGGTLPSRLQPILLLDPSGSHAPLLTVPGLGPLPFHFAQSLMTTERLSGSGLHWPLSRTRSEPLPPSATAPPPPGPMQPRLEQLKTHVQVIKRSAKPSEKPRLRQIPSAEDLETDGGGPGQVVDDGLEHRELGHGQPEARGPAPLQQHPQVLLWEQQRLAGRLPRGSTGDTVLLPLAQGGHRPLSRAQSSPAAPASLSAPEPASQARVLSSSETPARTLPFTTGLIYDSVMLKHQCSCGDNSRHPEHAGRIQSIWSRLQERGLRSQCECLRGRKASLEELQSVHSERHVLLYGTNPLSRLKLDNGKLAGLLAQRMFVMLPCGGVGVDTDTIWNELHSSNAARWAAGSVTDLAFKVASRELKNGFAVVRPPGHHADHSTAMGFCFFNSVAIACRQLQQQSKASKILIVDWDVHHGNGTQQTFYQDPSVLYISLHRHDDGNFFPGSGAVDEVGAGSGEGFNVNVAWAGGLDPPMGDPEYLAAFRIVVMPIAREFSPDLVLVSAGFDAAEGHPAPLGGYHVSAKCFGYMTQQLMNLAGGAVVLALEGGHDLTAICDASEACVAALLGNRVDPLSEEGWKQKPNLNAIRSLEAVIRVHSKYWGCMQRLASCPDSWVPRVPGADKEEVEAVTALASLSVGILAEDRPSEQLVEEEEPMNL

HDAC1 = HDAC1 (Homo sapiens, UniProt Q13547); assay: as above
HDAC8 = target: T2, HDAC8 (Homo sapiens, UniProt Q9BY41); assay: as above; details: 37° C. 30 minutes
T2 sequence (Q9BY41 1-377): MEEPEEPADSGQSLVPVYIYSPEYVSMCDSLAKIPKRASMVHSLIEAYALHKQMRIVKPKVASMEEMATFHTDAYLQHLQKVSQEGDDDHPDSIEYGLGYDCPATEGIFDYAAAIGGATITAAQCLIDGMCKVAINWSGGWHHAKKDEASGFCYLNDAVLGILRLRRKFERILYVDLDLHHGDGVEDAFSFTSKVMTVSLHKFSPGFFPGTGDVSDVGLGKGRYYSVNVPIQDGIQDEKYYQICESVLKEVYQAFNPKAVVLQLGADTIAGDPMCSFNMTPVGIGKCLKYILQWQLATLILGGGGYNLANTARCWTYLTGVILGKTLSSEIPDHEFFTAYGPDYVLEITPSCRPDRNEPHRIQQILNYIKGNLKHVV

HDAC3 = HDAC3 (Homo sapiens, UniProt O15379); assay: as above;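 also: fluorogenic acetyl-lysine substrate (20 µM) deacetylated by HDAC3, then developer added for 15 min at room temperature, release of fluorophore read at excitation 360 nm, emission 460 nm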
HDAC11 = target: T3, HDAC11 (Homo sapiens, UniProt Q96DB2); assay: as above;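 also: HDAC11 enzyme acting on an acetyl-lysine fluorogenic substrate, then a developer frees the fluorophore, read at excitation 360 nm and emission 460 nm, IC50 over a compound dilution series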
T3 sequence (Q96DB2 1-347): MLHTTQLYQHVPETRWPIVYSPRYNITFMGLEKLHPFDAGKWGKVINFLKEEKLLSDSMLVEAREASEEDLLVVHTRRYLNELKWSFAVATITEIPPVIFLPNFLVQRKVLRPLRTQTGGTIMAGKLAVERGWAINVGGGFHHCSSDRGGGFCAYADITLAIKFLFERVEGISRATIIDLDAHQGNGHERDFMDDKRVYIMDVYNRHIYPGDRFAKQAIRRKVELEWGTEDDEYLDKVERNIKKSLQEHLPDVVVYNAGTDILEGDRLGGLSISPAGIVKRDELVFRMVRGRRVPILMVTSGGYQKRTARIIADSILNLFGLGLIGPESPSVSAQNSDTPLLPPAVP

[1] = tested on: A549 (human lung cancer cells); assay: MTT cancer cell growth inhibition; assay type: cell-based; details: MTT
Procedure, shortened: (§1)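 Seed 1500 cells/well, incubate overnight. Add compound, 10^−5 to 10^−10 M final, n=3; culture 72 h, 37° C., 5% CO2. Add MTT, 4 h. Discard supernatant, dissolve in DMSO. Read 570 nm; calculate viability and GI50.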

[2] = tested on: KBM5-T315I (human chronic myelogenous leukemia); assay: MTT cancer cell growth inhibition; assay type: cell-based; details: MTT, 72 hours incubation, KBM5-T315I cells, read-out: GI50 KBM5-T315I
Procedure, shortened: as §1

[3] = tested on: MOLT-4 (human acute lymphoblastic leukemia cells); assay: MTT cancer cell growth inhibition; assay type: cell-based; details: MTT
Procedure, shortened: as §1

[4] = tested on: MCF-7 (human breast cancer cells); assay: MTT cancer cell growth inhibition; assay type: cell-based
Procedure, shortened: as §1

[5] = tested on: H1975 (non-small cell lung adenocarcinoma); assay: MTT cancer cell growth inhibition; assay type: cell-based; details: MTT, 72 hours incubation, H1975 cells, read-out: GI50 H1975
Procedure, shortened: as §1

HDAC2 = HDAC2 (Homo sapiens, UniProt Q92769); assay: HDAC biochemical activity measurement (fluorescent substrate deacetylation);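 also: HDAC2 enzyme with an acetyl-lysine fluorescent substrate, then developer added, fluorescence read at excitation 360 nm and emission 460 nm, inhibition measured across several compound concentrations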; details: 37° C. 30 minutes
[6] = HDAC1, 37° C. 30 minutes, read-out: IC50 HDAC1
[7] = Table 2, read-out: IC50 HDAC1, a (compounds of the present invention)
[8] = read-out: IC50 HDAC3, HDAC3, 37° C. 30 minutes
[9] = read-out: IC50 HDAC11, HDAC11, 37° C. 30 minutes
[10] = Homo sapiens, A549, 72 h, A549 cells, 72 hours incubation, read-out: GI50 A54
[11] = Homo sapiens, A549, 72 h, 72 hours, present invention, read-out: GI50 A549, a
[12] = Homo sapiens, MOLT-4, 72 h, MOLT-4 cells, 72 hours incubation, read-out: GI50 Mol
[13] = Homo sapiens, MOLT-4, 72 h, 72 hours, present invention, read-out: GI50 Molt-4, a
[14] = Homo sapiens, MCF7, 72 h, 72 hours, present invention, read-out: GI50 MCF7, a
[15] = Homo sapiens, MCF7, 72 h, MCF-7 cells, 72 hours incubation, read-out: GI50 MCF
[16] = Table 3, column C, read-out: IC50 HDAC1, C (six-membered ring with substituents)
[17] = Homo sapiens, A549, 72 h, 72 hours incubation, read-out: GI50 A54
[18] = Homo sapiens, MOLT-4, 72 h, 72 hours incubation, read-out: GI50 Mol
[19] = Homo sapiens, MCF7, 72 h, 72 hours incubation, read-out: GI50 MCF
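For IC50 HDAC1 in this document: fluorogenic acetyl-lysine substrate (20 µM) deacetylated by HDAC1, then developer releases fluorophore read at 360 nm excitation and 460 nm emission, inhibitor incubated 30 min at 37 °C.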
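For IC50 HDAC1, C (six-membered ring with substituents) in this document: fluorogenic acetyl-lysine substrate (20 µM) deacetylated by HDAC1, then developer releases fluorophore read at 360 nm excitation and 460 nm emission, inhibitor incubated 30 min at 37 °C.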
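For IC50 HDAC1, a (compounds of the present invention) in this document: fluorogenic acetyl-lysine substrate (20 µM) deacetylated by HDAC1, then developer releases fluorophore read at 360 nm excitation and 460 nm emission, inhibitor incubated 30 min at 37 °C.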

Sequence of HDAC2 (Q92769 whole entry, species assumed): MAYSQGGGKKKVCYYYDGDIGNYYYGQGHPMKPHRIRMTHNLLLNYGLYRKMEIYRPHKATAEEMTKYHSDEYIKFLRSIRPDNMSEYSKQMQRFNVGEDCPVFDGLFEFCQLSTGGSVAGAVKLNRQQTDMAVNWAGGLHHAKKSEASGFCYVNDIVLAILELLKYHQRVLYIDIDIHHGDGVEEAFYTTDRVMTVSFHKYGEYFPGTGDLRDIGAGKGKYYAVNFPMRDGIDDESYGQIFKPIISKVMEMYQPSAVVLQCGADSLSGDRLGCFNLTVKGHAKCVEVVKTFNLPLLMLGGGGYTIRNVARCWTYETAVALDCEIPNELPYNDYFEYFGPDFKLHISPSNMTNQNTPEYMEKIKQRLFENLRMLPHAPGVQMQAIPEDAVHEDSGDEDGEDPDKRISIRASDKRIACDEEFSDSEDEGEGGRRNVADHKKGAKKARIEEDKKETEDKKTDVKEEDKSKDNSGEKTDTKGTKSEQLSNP
Sequence of HDAC3 (O15379 whole entry, species assumed): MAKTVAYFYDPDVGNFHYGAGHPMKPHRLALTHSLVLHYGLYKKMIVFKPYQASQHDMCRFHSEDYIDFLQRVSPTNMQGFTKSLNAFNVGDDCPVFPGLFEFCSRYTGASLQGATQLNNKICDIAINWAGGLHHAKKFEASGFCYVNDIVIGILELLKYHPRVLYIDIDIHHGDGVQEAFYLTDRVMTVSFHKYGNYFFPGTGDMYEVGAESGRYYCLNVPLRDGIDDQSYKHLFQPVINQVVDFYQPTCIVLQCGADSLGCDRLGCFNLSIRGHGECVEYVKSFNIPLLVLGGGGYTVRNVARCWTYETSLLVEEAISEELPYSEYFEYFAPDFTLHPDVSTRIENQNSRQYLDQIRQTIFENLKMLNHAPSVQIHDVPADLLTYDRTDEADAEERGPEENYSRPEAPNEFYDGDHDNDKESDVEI
Sequence of HDAC3 (Q9Y618 395-489 partner limits assumed, species assumed): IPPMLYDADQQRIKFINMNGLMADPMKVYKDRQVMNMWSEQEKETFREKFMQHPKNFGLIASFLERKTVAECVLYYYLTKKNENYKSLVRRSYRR
Sequence of HDAC1 (Q13547 whole entry, species assumed): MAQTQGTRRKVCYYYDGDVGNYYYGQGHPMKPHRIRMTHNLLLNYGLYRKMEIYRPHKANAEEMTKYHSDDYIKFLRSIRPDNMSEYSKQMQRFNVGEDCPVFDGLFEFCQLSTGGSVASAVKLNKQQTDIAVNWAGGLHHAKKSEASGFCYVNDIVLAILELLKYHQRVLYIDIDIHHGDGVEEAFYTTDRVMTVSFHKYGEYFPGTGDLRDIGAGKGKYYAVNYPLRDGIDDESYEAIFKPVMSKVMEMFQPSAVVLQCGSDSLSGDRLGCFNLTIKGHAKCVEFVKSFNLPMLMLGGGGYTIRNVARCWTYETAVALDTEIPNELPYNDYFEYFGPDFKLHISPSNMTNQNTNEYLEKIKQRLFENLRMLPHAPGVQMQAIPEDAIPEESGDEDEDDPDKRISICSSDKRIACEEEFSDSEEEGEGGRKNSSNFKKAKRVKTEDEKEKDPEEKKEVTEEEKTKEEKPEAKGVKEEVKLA

Row | SMILES | IC50 HDAC7 (HDAC7) | IC50 (HDAC1; [6]) | IC50 (HDAC8) | IC50 (HDAC3; [8]) | IC50 (HDAC11; [9]) | GI50 [1, 10] | GI50 ([2]; Homo sapiens, 72 h) | GI50 [3, 12] | GI50 [4, 15] | GI50 ([5]; Homo sapiens, NCI-H1975, 72 h) | IC50 (HDAC2) | IC50 (HDAC3) | IC50 (HDAC11) | IC50 (HDAC1; [16]) | GI50 [1, 17] | GI50 [3, 18] | GI50 [4, 19] | also measured
1 | CCCCCCCC(=O)SCC/C=C/[C@@H]1CC(=O)NCc2cccc(n2)C(=O)NC(CC)C(=O)N[C@@H](C(C)C)C(=O)O1 (stereo partly shown) [Compound 245] | no activity | 0.066 µM | 0.102 µM | 0.052 µM | 0.126 µM | 0.11 µM | 0.012 µM | 0.35 µM | 0.04 µM | 0.028 µM | 0.074 µM | – | – | – | – | – | – | IC50 (HDAC1; [7]): < 0.1 µM; GI50 [1, 11]: 0.11 µM; GI50 [3, 13]: 0.35 µM; GI50 [4, 14]: 0.041 µM
2 | C/C=C1\NC(=O)c2cc(SCCC)cc(n2)CNC(=O)C[C@@H](/C=C/CCSC(=O)CCCCCCC)OC(=O)[C@H](CC)NC1=O [Compound 175] | no activity | 0.041 µM | 0.069 µM | – | – | 0.1 µM | 0.047 µM | 0.02 µM | 0.02 µM | 0.042 µM | 0.032 µM | 0.011 µM | 0.055 µM | – | – | – | – | –
3 | C/C=C1\NC(=O)c2cccc(n2)CNC(=O)C[C@@H](/C=C/CCSC(=O)CCCCCCC)OC(=O)[C@H](C(C)(C)C)NC1=O [Compound 237] | no activity | 0.072 µM | 0.043 µM | 0.035 µM | 0.077 µM | 0.42 µM | 0.087 µM | 0.97 µM | 0.35 µM | 0.083 µM | 0.032 µM | – | – | – | – | – | – | IC50 (HDAC1; [7]): < 0.08 µM; GI50 [1, 11]: 0.42 µM; GI50 [3, 13]: 0.97 µM; GI50 [4, 14]: 0.35 µM
4 | C/C=C1\NC(=O)c2cc(F)cc(n2)CNC(=O)C[C@@H](/C=C/CCSC(C)=O)OC(=O)[C@H](CC)NC1=O [Compound 58] | no activity | 0.032 µM | 0.051 µM | 0.029 µM | 0.097 µM | – | 0.082 µM | – | – | 0.061 µM | 0.021 µM | – | – | 0.032 µM | 0.05 µM | 0.03 µM | 0.08 µM | –
5 | C=C1NC(=O)c2cc(SC)cc(n2)CNC(=O)C[C@@H](/C=C/CCSC(C)=O)OC(=O)[C@H](C(C)C)NC1=O [Compound 205] | no activity | 0.091 µM | 0.062 µM | – | – | 0.05 µM | 0.027 µM | 0.05 µM | 0.07 µM | 0.064 µM | 0.052 µM | 0.038 µM | 0.077 µM | – | – | – | – | –
6 | C/C=C1\NC(=O)c2ncc(SC)c(n2)CNC(=O)C[C@@H](/C=C/CCSC(C)=O)OC(=O)[C@H](C(C)C)NC1=O [Compound 217] | no activity | 0.035 µM | 0.078 µM | 0.122 µM | 0.093 µM | – | – | – | – | – | 0.043 µM | – | – | – | – | – | – | GI50 ([1]; A549 cells, 72 hours incubation, read-out: GI50 A54): 0.07 µM; GI50 [2]: 0.083 µM; GI50 ([3]; MOLT-4 cells, 72 hours incubation, read-out: GI50 Mol): 0.09 µM; GI50 ([4]; MCF-7 cells, 72 hours incubation, read-out: GI50 MCF): 0.06 µM; GI50 [5]: 0.043 µM
7 | C/C=C1\NC(=O)c2nc(ccc2SC)CNC(=O)C[C@@H](/C=C/CCSC(=O)CCCCC)OC(=O)[C@H](C(C)C)NC1=O [Compound 153] | no activity | 0.072 µM | 0.028 µM | – | – | 0.03 µM | 0.031 µM | 0.08 µM | 0.06 µM | 0.031 µM | 0.031 µM | 0.036 µM | 0.072 µM | – | – | – | – | –
8 | C/C=C1\NC(=O)c2nc(ccc2F)CNC(=O)C[C@@H](/C=C/CCSC(=O)CCCCCC)OC(=O)[C@H](C(C)C)NC1=O [Compound 33] | no activity | 0.023 µM | 0.059 µM | 0.036 µM | 0.089 µM | – | 0.051 µM | – | – | 0.026 µM | 0.043 µM | – | – | 0.023 µM | 0.05 µM | 0.03 µM | 0.05 µM | –
9 | C/C=C1\NC(=O)c2cc(F)cc(n2)CNC(=O)C[C@@H](/C=C/CCSC(=O)CCC)OC(=O)[C@H](C(C)C)NC1=O [Compound 43] | no activity | 0.027 µM | 0.043 µM | 0.046 µM | 0.094 µM | – | 0.054 µM | – | – | 0.062 µM | 0.051 µM | – | – | 0.027 µM | 0.05 µM | 0.03 µM | 0.05 µM | –
10 | C/C=C1\NC(=O)c2cccc(n2)CCNC(=O)C[C@@H](/C=C/CCS)OC(=O)[C@H](C(C)C)NC1=O [Compound 146] | no activity | 0.073 µM | 0.043 µM | – | – | – | 0.023 µM | – | – | 0.073 µM | 0.034 µM | 0.028 µM | 0.097 µM | – | 0.03 µM | 0.08 µM | 0.05 µM | –
11 | C/C=C1\NC(=O)c2cc(F)cc(n2)CNC(=O)C[C@@H](/C=C/CCSC(=O)CCCCCCC)OC(=O)[C@H](Cc2ccccc2)NC1=O [Compound 70] | no activity | 0.033 µM | 0.034 µM | 0.024 µM | 0.097 µM | – | 0.037 µM | – | – | 0.062 µM | 0.043 µM | – | – | 0.033 µM | 0.04 µM | 0.03 µM | 0.03 µM | –
